Test results from publication PMC5971037, “Synthesis and evaluation of antimicrobial, antitubercular and anticancer activities of 2-(1-benzoyl-1H-benzo[d]imidazol-2-ylthio)-N-substituted acetamides” (Chemistry Central Journal, 2018).
Values after ≈ are worked out from the molar mass of the structure shown. Where two headings read alike, the source gives them in different places.

Columns and labels:
[1] = system: B. subtilis; assay: Tube dilution MIC; details: Bacillus subtilis, 24 h, read-out: MIC B. subtilis
[2] = system: E. coli; assay: Tube dilution MIC; details: Escherichia coli, 24 h, read-out: MIC E. coli
[3] = system: S. aureus; assay: Tube dilution MIC; details: Staphylococcus aureus, 24 h, read-out: MIC S. aureus
[4] = system: B. cereus; assay: Tube dilution MIC; details: Bacillus cereus, 24 h, read-out: MIC B. cereus
[5] = system: S. typhi; assay: Tube dilution MIC; format: cell-based; details: Salmonella enterica, 24 h, read-out: MIC S. typhi
[6] = system: E. coli; assay: MBC by subculturing; format: cell-based; details: Escherichia coli
Experimental: (§1) The minimum bactericidal concentration (MBC) and minimum fungicidal concentration (MFC) of the synthesized benzimidazole derivatives was determined by subculturing 100 µl of culture from each tube that remained clear in MIC determination onto sterilized petri-plates containing fresh agar medium. The petri-plates were incubated and analyzed for microbial growth visually.

[7] = system: B. subtilis; assay: MBC by subculturing; format: cell-based
Experimental: as §1

[8] = system: S. aureus; assay: MBC by subculturing; format: cell-based; details: Staphylococcus aureus
Experimental: as §1

[9] = system: S. typhi; assay: MBC by subculturing; format: cell-based; details: Salmonella enterica, read-out: MBC S. typhi
Experimental: as §1

[10] = system: B. cereus; assay: MBC by subculturing; format: cell-based
Experimental: as §1

[11] = In vivo LD50, ED50 and toxic dose in mice models; details: mouse, dose that killed 50% of the mice population within the group
Experimental: The LD50 and ED50 were determined for the active compounds in mice models infected with Mycobacterium H37Rv (Table 4). […] Thus, ED50 of 1.34 mg/kg was considered safe for each of the compounds. It was observed that this dose was effective and safe for mice in different groups before infecting the mice models with specific TB bacteria as no mortality of any single animal was recorded.
The LD50 (lethal dose) and ED50 (optimum/effective dose) doses were determined for the active compounds in mice models infected with Mycobacterium H37Rv via ethical permission no., NCFT/EC/16/2313 assigned to Collaborative Research Group (CRG), NCFT, New Delhi, India.

[12] = system: C. albicans; assay: microbe, parasite or virus in culture; details: Candida albicans, 48 h, read-out: MIC C. albicans
[13] = system: A. niger; assay: MFC by subculturing; format: cell-based
Experimental: as §1

[14] = system: C. albicans; assay: MFC by subculturing; format: cell-based
Experimental: as §1

[15] = system: MCF7 (human breast cancer) cell line; assay: Sulforhodamine-B (SRB) cytotoxicity assay; format: cell-based
[16] = molecular target: mycobacterial isocitrate lyase (Mycobacterium tuberculosis, UniProt P9WKK7); assay: Mycobacterial isocitrate lyase (ICL) assay; format: biochemical, M. tuberculosis H37Rv; details: read-out: Percent inhibition of enzyme, M. ICL activity
Experimental: The compounds found potent in in vivo evaluation were assayed for inhibition of mycobacterial enzymes viz., isocitrate lyase, pantothenate synthetase and chorismate mutase.
Isocitrate lyase activity was assayed according to the protocol reported by Dixon and Kornberg (glyoxylate phenyl hydrazone formation) at 10 μM of the compounds.

[17] = system: M. tuberculosis H37Rv; assay: MIC by microplate alamar blue assay; format: cell-based; details: Mycobacterium tuberculosis, NA = no activity, read-out: MIC against M. tuberculosis H37Rv
[18] = system: M. tuberculosis H37Rv (NCFT/TB/537); assay: Well diffusion susceptibility test (zone of inhibition); format: cell-based; details: Mycobacterium tuberculosis, 672 h, read-out: Diameter of zone of inhibition against H37Rv (NCFT/TB/537), wells of 8 mm, 50 µg/ml test compound, 25 µg/ml standard drug, 4 weeks, NA = no activity
[19] = system: HCT116 (human colorectal) cell line; assay: Sulforhodamine-B (SRB) cytotoxicity assay; format: cell-based
[20] = system: A. niger; assay: microbe, parasite or virus in culture; details: Aspergillus niger, 168 h, read-out: MIC A. niger
[21] = system: M. tuberculosis H37Rv; assay: Minimum lethal concentration (MLC); format: cell-based; details: Mycobacterium tuberculosis, NA = no activity, read-out: MLC against M. tuberculosis H37Rv
[22] = Bacillus subtilis, read-out: MBC B. subtilis
[23] = Bacillus cereus, read-out: MBC B. cereus
[24] = Aspergillus niger, read-out: MFC A. niger
[25] = Candida albicans, read-out: MFC C. albicans
[26] = Bacillus subtilis; read-out: MBC B. subtilis
[27] = Bacillus cereus; read-out: MBC B. cereus
[28] = Aspergillus niger; read-out: MFC A. niger
[29] = Candida albicans; read-out: MFC C. albicans
[30] = SRB assay, MCF7 cell line, read-out: IC50 MCF7
[31] = HCT-116, SRB assay, HCT116 cell line, read-out: IC50 HCT116

Chain of mycobacterial isocitrate lyase (P9WKK7 whole entry): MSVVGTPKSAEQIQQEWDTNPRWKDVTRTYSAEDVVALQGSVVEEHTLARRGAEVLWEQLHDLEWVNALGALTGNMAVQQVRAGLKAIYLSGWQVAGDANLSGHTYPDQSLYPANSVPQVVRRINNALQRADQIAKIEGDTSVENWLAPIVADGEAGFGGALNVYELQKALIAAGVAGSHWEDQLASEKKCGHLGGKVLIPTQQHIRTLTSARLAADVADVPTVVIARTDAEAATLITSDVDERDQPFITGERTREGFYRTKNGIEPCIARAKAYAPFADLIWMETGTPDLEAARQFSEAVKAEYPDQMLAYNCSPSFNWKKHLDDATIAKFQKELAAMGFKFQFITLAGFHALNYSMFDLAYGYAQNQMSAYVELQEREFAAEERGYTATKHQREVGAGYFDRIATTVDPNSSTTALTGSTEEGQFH

| SMILES | MIC [1] [µM] | MIC [2] [µM] | MIC [3] [µM] | MIC [4] [µM] | MIC [5] [µM] | MBC [6] [µg/mL] | MBC [8] [µg/mL] | MBC [9] [µg/mL] | MIC [12] [µM] | MIC [17] [µg/mL] | zone of inhibition at 50 µg/mL [18] [mm] | MIC [20] [µM] | MBC [21] [µg/mL] | MBC [7, 26] [µg/mL] | MBC [10, 27] [µg/mL] | MFC [13, 28] [µg/mL] | MFC [14, 29] [µg/mL] | IC50 [15, 30] [µM] | IC50 [19, 31] [µM] | also measured |
| --- | --- | --- | --- | --- | --- | --- | --- | --- | --- | --- | --- | --- | --- | --- | --- | --- | --- | --- | --- | --- |
| CC1=C(C(=O)O)N2C(=O)[C@@H](NC(=O)[C@H](N)c3ccc(O)cc3)[C@H]2SC1 [Cefadroxil, reference compound] | 370 (≈ 134 µg/mL) | 370 (≈ 134 µg/mL) | 370 (≈ 134 µg/mL) | 370 (≈ 134 µg/mL) | 370 (≈ 134 µg/mL) |  |  |  |  |  |  |  |  |  |  |  |  |  |  |  |
| O=C(CSc1nc2ccccc2n1C(=O)c1ccccc1)Nc1ccccc1 [Compound 1] | 32 (≈ 12.4 µg/mL) | 32 (≈ 12.4 µg/mL) | 32 (≈ 12.4 µg/mL) | 32 (≈ 12.4 µg/mL) | 32 (≈ 12.4 µg/mL) | 50 (≈ 129 µM) | 50 (≈ 129 µM) | 50 (≈ 129 µM) | 32 (≈ 12.4 µg/mL) | 12.5 (≈ 32.3 µM) | > 20 | 32 (≈ 12.4 µg/mL) | 25 (≈ 64.5 µM) |  |  |  |  |  |  | MBC [7, 22]: > 50 µg/mL; MBC [10, 23]: > 50 µg/mL; LD50 [11]: 1.83 mg/kg; MFC [13, 24]: > 50 µg/mL; MFC [14, 25]: 50 µg/mL (≈ 129 µM); IC50 ([15]; MCF7, read-out: IC50 MCF7): 77.4 µM; inhibition at 10 µM [16]: 62.2%; IC50 ([19]; HCT-116, read-out: IC50 HCT116): > 258 µM |
| O=C(CSc1nc2ccccc2n1C(=O)c1ccccc1)Nc1ccccc1F [Compound 2, 2-(1-Benzoyl-1H-benzo[d]imidazol-2-ylthio)-N-(2-fluorophenyl)acetamide] | 31 (≈ 12.6 µg/mL) | 31 (≈ 12.6 µg/mL) | 31 (≈ 12.6 µg/mL) | 31 (≈ 12.6 µg/mL) | 31 (≈ 12.6 µg/mL) | 50 (≈ 123 µM) | > 50 | 50 (≈ 123 µM) | 15 (≈ 6.08 µg/mL) | 12.5 (≈ 30.8 µM) | > 20 | 31 (≈ 12.6 µg/mL) | 25 (≈ 61.7 µM) |  |  |  |  |  |  | MBC [7, 22]: 50 µg/mL (≈ 123 µM); MBC [10, 23]: > 50 µg/mL; LD50 [11]: 1.81 mg/kg; MFC [13, 24]: > 50 µg/mL; MFC [14, 25]: 50 µg/mL (≈ 123 µM); IC50 ([15]; MCF7, read-out: IC50 MCF7): 4.7 µM; inhibition at 10 µM [16]: 58.8%; IC50 ([19]; HCT-116, read-out: IC50 HCT116): 83.9 µM |
| O=C(CSc1nc2ccccc2n1C(=O)c1ccccc1)Nc1cccc(Cl)c1 [Compound 5, 2-(1-Benzoyl-1H-benzo[d]imidazol-2-ylthio)-N-(3-chlorophenyl)acetamide] | 30 (≈ 12.7 µg/mL) | 30 (≈ 12.7 µg/mL) | 30 (≈ 12.7 µg/mL) | 30 (≈ 12.7 µg/mL) | 30 (≈ 12.7 µg/mL) | 50 (≈ 119 µM) | 50 (≈ 119 µM) | 50 (≈ 119 µM) | 15 (≈ 6.33 µg/mL) | 17.8 (≈ 42.2 µM) | 8 | 30 (≈ 12.7 µg/mL) | 28.1 (≈ 66.6 µM) | 50 (≈ 119 µM) | > 50 | > 50 | 50 (≈ 119 µM) | 83.1 | 131 |  |
| O=c1[nH]cc(F)c(=O)[nH]1 [Compound 5-FU, 5-fluorouracil, reference compound] |  |  |  |  |  |  |  |  |  |  |  |  |  |  |  |  |  |  | 12.5 |  |
| COc1cccc(NC(=O)CSc2nc3ccccc3n2C(=O)c2ccccc2)c1 [Compound 14, 2-(1-Benzoyl-1H-benzo[d]imidazol-2-ylthio)-N-(3-methoxyphenyl)acetamide] | 30 (≈ 12.5 µg/mL) | 30 (≈ 12.5 µg/mL) | 30 (≈ 12.5 µg/mL) | 30 (≈ 12.5 µg/mL) | 30 (≈ 12.5 µg/mL) | 50 (≈ 120 µM) | > 50 | > 50 | 30 (≈ 12.5 µg/mL) |  |  | 30 (≈ 12.5 µg/mL) |  | > 50 | > 50 | > 50 | 50 (≈ 120 µM) | 95.8 | 95.8 |  |
| Cc1ccccc1NC(=O)CSc1nc2ccccc2n1C(=O)c1ccccc1 [Compound 16, 2-(1-Benzoyl-1H-benzo[d]imidazol-2-ylthio)-N–o-tolylacetamide] | 31 (≈ 12.4 µg/mL) | 31 (≈ 12.4 µg/mL) | 31 (≈ 12.4 µg/mL) | 31 (≈ 12.4 µg/mL) | 31 (≈ 12.4 µg/mL) | > 50 | 50 (≈ 125 µM) | 50 (≈ 125 µM) | 16 (≈ 6.42 µg/mL) | 15 (≈ 37.4 µM) | 10 | 31 (≈ 12.4 µg/mL) | 28 (≈ 69.7 µM) | 50 (≈ 125 µM) | > 50 | > 50 | 25 (≈ 62.3 µM) | 124 | 87.2 |  |
